Source: patent US6987111B2 (Alkermes Controlled Therapeutics, II, priority 2003, dated 2006)

Assay: Pharmacokinetic evaluation in rats following single subcutaneous doses
Type: in vivo
Conditions: male Sprague-Dawley rats, single SC injection of 40 mg in 0.75 mL aqueous diluent, plasma 2 h to 14 d
Description: Species and Strain: Sprague-Dawley rats. Male; 450+/−50 grams.
Study Groups: 4 Groups. 12 subjects
Route of Injection: Subcutaneous (SC) injection into the interscapular region. Injection Vehicle: Aqueous Diluent: Water, 3% CMC low viscosity, 0.1% Tween 20, in 0.9% NaCl Dose Volumes: Dose suspensions were formulated as follows: • Group A: 20 mg powder in 0.75 mL Diluent • Group B: 40 mg microparticles in 0.75 mL Diluent • Group C: 20 mg powder in 0.75 mL Diluent • Group D: 50 mg powder in 0.75 mL Diluent Blood Collection: Blood samples were collected via a lateral tail vein after anesthesia with Halothane. A syringe without an anticoagulant was used for the blood collection, then the whole blood was transferred to tubes containing K2 EDTA and mixing beads (Microtainer®; MFG# BD365974). The blood samples were processed (the tubes are inverted 15–20 times and centrifuged for 2 minutes at >14,000 g's) to separate plasma. The plasma samples prepared in this manner were transferred to labeled plain tubes (Microtainer®; MFG# BD5962) and stored frozen at <−70° C. Blood Volumes: At least 250 μL blood for each time point during the first 24 hours and 400 μL for each time point thereafter.

Substance: haloperidol pamoate [pamoate salt]
- extended release profile (plasma concentrations over time): good to excellent extended release profiles
